Results reported in patent US6897244B2, “Dihydronootkatone and tetrahydronootkatone as repellents to arthropods” (Board of Supervisors of Louisiana State University and …, priority 2002, dated 2005).

System: Formosan subterranean termites
Test: Petri dish treated/untreated sand bioassay for repelling activity against termites
Type: in vivo, Coptotermes formosanus
Set-up: key to percent of termites on untreated sand vs expected value of 50% (Chi-Square, p≦0.05): “−” indicates the test was not significantly different from the expected value; “+” indicates the test was significantly different from the expected value
Protocol: A carton nest (colony A) of Formosan subterranean termites was collected in Algiers, Louisiana in November 1997, and held in 250-liter cans. The cans were filled with pine as a food source, and kept at a temperature range of 24-26° C. Moistened corrugated cardboard rolls were used to retrieve termites from the cans. Once the termites migrated to the cardboard rolls, they were gently knocked from the cardboard rolls into clean rectangular plastic trays (40 cm×50 cm). Retrieved termites were isolated from debris by allowing them to cling to sheets of moistened paper towels. The average weight of each termite was 1.21 mg.
To test for effectiveness of nootkatone, 1,10-dihydronootkatone and tetrahydronootkatone in repelling termites, a bioassay was conducted using Petri dishes (5 cm diameter and 1 cm height). To ensure adequate moisture for the termites, 1 ml of a hot agar solution (1.5% in H2O) was spread on the bottom of the Petri dish. After the agar cooled, sand that was treated as described below was spread on the bottom of the Petri dish. For the treated sand, purified 1,10-dihydronootkatone or tetrahydronootkatone were dissolved in 2 ml ethanol, and then diluted to achieve final concentrations of 1, 2, 5, 12.5, 25, 50, and 100 μg/g sand. The solution was mixed with 1 g sand that had been autoclaved and cooled. The control sand was autoclaved sand with only 200 μl ethanol added. One half of the surfaces in the Petri dishes were covered with 1 g treated sand, and the other half with 1 g untreated sand.
The prepared Petri dishes were then used to evaluate the repelling activity against Formosan subterranean termites. Ten worker termites were added to each Petri dish, and the dishes were covered to eliminate light. Five replicate dishes were tested for each concentration and for the control. Termite position was recorded every 15 min during the first hour of testing by counting the number of termites observed on untreated sand. After the first hour, termite position was recorded each hour for 3 hr.
Differences between the percent of termites on untreated sand and an expected value were statistically analyzed by a Chi-Square analysis, using an expected value of 50% and a significance level of p≦0.05.

C=C(C)C1CCC2CC(=O)CC(C)C2(C)C1 (centres unmarked) [Dihydronootkatone, 1,4,4a,5,6,7,8,10-octahydro-6-isopropenyl-4,4a-dimethyl-2(1H)-naphthalenone]
percent of termites on untreated sand vs expected value of 50% (Chi-Square, p≦0.05) (2 μg/dish, 0.25 hour): −
percent of termites on untreated sand vs expected value of 50% (Chi-Square, p≦0.05) (2 μg/dish, 0.5 hour): −
percent of termites on untreated sand vs expected value of 50% (Chi-Square, p≦0.05) (2 μg/dish, 0.75 hour): −
percent of termites on untreated sand vs expected value of 50% (Chi-Square, p≦0.05) (2 μg/dish, 1 hour): −
percent of termites on untreated sand vs expected value of 50% (Chi-Square, p≦0.05) (2 μg/dish, 2 hour): −
percent of termites on untreated sand vs expected value of 50% (Chi-Square, p≦0.05) (2 μg/dish, 3 hour): −
percent of termites on untreated sand vs expected value of 50% (Chi-Square, p≦0.05) (5 μg/dish, 0.25 hour): −
percent of termites on untreated sand vs expected value of 50% (Chi-Square, p≦0.05) (5 μg/dish, 0.5 hour): −
percent of termites on untreated sand vs expected value of 50% (Chi-Square, p≦0.05) (5 μg/dish, 0.75 hour): −
percent of termites on untreated sand vs expected value of 50% (Chi-Square, p≦0.05) (5 μg/dish, 1 hour): −
percent of termites on untreated sand vs expected value of 50% (Chi-Square, p≦0.05) (5 μg/dish, 2 hour): −
percent of termites on untreated sand vs expected value of 50% (Chi-Square, p≦0.05) (5 μg/dish, 3 hour): −
percent of termites on untreated sand vs expected value of 50% (Chi-Square, p≦0.05) (12.5 μg/dish, 0.25 hour): +
percent of termites on untreated sand vs expected value of 50% (Chi-Square, p≦0.05) (12.5 μg/dish, 0.5 hour): +
percent of termites on untreated sand vs expected value of 50% (Chi-Square, p≦0.05) (12.5 μg/dish, 0.75 hour): +
percent of termites on untreated sand vs expected value of 50% (Chi-Square, p≦0.05) (12.5 μg/dish, 1 hour): +
percent of termites on untreated sand vs expected value of 50% (Chi-Square, p≦0.05) (12.5 μg/dish, 2 hour): +
percent of termites on untreated sand vs expected value of 50% (Chi-Square, p≦0.05) (12.5 μg/dish, 3 hour): +
percent of termites on untreated sand vs expected value of 50% (Chi-Square, p≦0.05) (25 μg/dish, 0.25 hour): −
percent of termites on untreated sand vs expected value of 50% (Chi-Square, p≦0.05) (25 μg/dish, 0.5 hour): +
percent of termites on untreated sand vs expected value of 50% (Chi-Square, p≦0.05) (25 μg/dish, 0.75 hour): +
percent of termites on untreated sand vs expected value of 50% (Chi-Square, p≦0.05) (25 μg/dish, 1 hour): +
percent of termites on untreated sand vs expected value of 50% (Chi-Square, p≦0.05) (25 μg/dish, 2 hour): +
percent of termites on untreated sand vs expected value of 50% (Chi-Square, p≦0.05) (25 μg/dish, 3 hour): +
percent of termites on untreated sand vs expected value of 50% (Chi-Square, p≦0.05) (50 μg/dish, 0.25 hour): +
percent of termites on untreated sand vs expected value of 50% (Chi-Square, p≦0.05) (50 μg/dish, 0.5 hour): +
percent of termites on untreated sand vs expected value of 50% (Chi-Square, p≦0.05) (50 μg/dish, 0.75 hour): +
percent of termites on untreated sand vs expected value of 50% (Chi-Square, p≦0.05) (50 μg/dish, 1 hour): +
percent of termites on untreated sand vs expected value of 50% (Chi-Square, p≦0.05) (50 μg/dish, 2 hour): +
percent of termites on untreated sand vs expected value of 50% (Chi-Square, p≦0.05) (50 μg/dish, 3 hour): +
percent of termites on untreated sand vs expected value of 50% (Chi-Square, p≦0.05) (100 μg/dish, 0.25 hour): +
percent of termites on untreated sand vs expected value of 50% (Chi-Square, p≦0.05) (100 μg/dish, 0.5 hour): +
percent of termites on untreated sand vs expected value of 50% (Chi-Square, p≦0.05) (100 μg/dish, 0.75 hour): +
percent of termites on untreated sand vs expected value of 50% (Chi-Square, p≦0.05) (100 μg/dish, 1 hour): +
percent of termites on untreated sand vs expected value of 50% (Chi-Square, p≦0.05) (100 μg/dish, 2 hour): +
percent of termites on untreated sand vs expected value of 50% (Chi-Square, p≦0.05) (100 μg/dish, 3 hour): +
factor by which the effective termite-repellent concentration is lower than that of nootkatone (relative to nootkatone): 8
concentration effective as termite repellent (time periods up to 3 hr): 12.5 µg
